In publication PMC6368337, “GluClR-mediated inhibitory postsynaptic currents reveal targets for ivermectin and potential mechanisms of ivermectin resistance” (PLoS Pathogens, 2019):

Tests used:
[1] = Lipophilicity (logP); format: physicochemical
[2] = molecular target: αβ (1:1) GluClRs (Haemonchus contortus, UniProt O46124+P91730); assay: Single channel recording, outside-out patches, αβ (1:1) GluClRs; format: cell-based, H. contortus; conditions: 2 μM glutamate plus 5 nM IVM
From the text: To explore whether a similar mechanism applies to β-containing GluClRs, we recorded single receptor currents in excised patches from cells transfected with either the α and β subunits (1:1) or the β subunit alone. […] By contrast, patches from cells transfected with the β subunit alone invariably opened to an amplitude of 0.4 pA (Fig 6C). Amplitude histograms confirmed two amplitude levels for αβ GluClRs and a single amplitude for the β GluClRs (Fig 6D). […] We infer that the αβ GluClRs that open to 0.7 pA likely contain a greater proportion of β subunits. This is consistent with β GluClRs having the smallest amplitude and α GluClRs having the greatest amplitude (1.8 pA) under similar recording conditions. The calculated conductance values for the corresponding amplitudes for αβ GluClRs was 15.2 pS and 8.9 pS and for the β GluClRs was 5.1 pS.
Single-channel currents were recorded from outside-out excised patches at a clamped potential of −70 mV. The single channel conductance was calculated by dividing the mean current by the net driving force at a clamped potential of ‐70 mV, after accounting for reversal and liquid junction potentials. Excised patches were continuously perfused via a gravity-fed double-barrelled glass tube, which contained extracellular bath solution containing (in mM), 140 NaCl, 5 KCl, 1 MgCl2, 2 CaCl2, 10 HEPES, and 10 D-glucose and titrated to pH 7.4. Glutamate and IVM were dissolved in this extracellular solution. Recording electrodes were pulled from borosilicate glass (G150F-3; Warner Instruments), coated with a silicone elastomer (Sylgard-184; Dow Corning) and heat-polished to a final tip resistance of 4–15 MΩ when filled with an intracellular solution containing (in mM) 145 CsCl, 2 MgCl2, 2 CaCl2, 10 HEPES, and 5 EGTA, pH 7.4. […] A 10 mM stock of IVM (Sigma-Aldrich) was dissolved in 100% DMSO and kept frozen at ‐20°C. Fresh working stocks of IVM at 5 nM were prepared by dissolving the appropriate quantity directly in extracellular solution. 100% DMSO when dissolved in extracellular solution alone at the same concentration as was present in working solutions containing 5 nM IVM had no effect on patches excised from cells transfected with GluClRs or from untransfected cells.
Currents were recorded using an Axopatch 200B amplifier (Molecular Devices), filtered at 5 kHz and digitized at 20 kHz using Clampex (pClamp 10 suite, Molecular Devices) via a Digidata 1440A digitizer.
Group data were analysed in SigmaPlot 13.0 using one-way ANOVAs, where p < 0.05 was taken as the significance threshold and expressed as mean ± SEM. Tests for normally distributed data are built into the SigmaPlot software. Confocal images were captured and analysed with Zen 2012 SP2 (Zeiss) software. Oocyte concentration-response data were fit to a Hill equation to obtain an EC50 and Hill co-efficient for each oocyte recording. These parameters were then averaged across multiple oocyte experiments of the same type. Single channel recordings were analysed in QuB software. […] Patches yielded between 30–250 individual active periods. […] The selected critical times eliminated periods of receptor desensitisation while retaining singe receptor active periods. Mean active period duration and intra-activation open probability was estimated from each patch. Group means were obtained by averaging across multiple patches for each recording condition.

[3] = tested on: Untransfected HEK293 cells; assay: Fluorescence recovery after photobleaching (FRAP), lateral membrane diffusion; conditions: in cell membrane
Experimental: The second experiment was aimed at determining the lateral membrane diffusion properties of IVM using the fluorescence recovery after photobleaching (FRAP) technique. After a 30-min equilibration time, 5 cells were monitored for fluorescence recovery within a bleached circular patch of membrane of 3.7 μm diameter (Fig 8C). Any bleaching and recovery of the surrounding area of the cell was measured, using a similar circular patch and used to correct the recovery rate of the membrane delineated by the bleached area. We also noted that the recovery reached 98 ± 2% of control. The time constant (τ) for recovery of 1.3 minutes was used to calculate the diffusion coefficient (D), using the radius (r) of the bleached patch, according to D = r^2/4τ. The calculated value of D was 1.1 x 10^−2 μm^2s^−1. Over the course of 1 s, the IVM-bdpy probe would traverse 0.2 μm along the membrane surface (lateral diffusion rate of 0.2 μms^−1). […] We infer that this slow lateral diffusion rate coupled to membrane partitioning are the major contributors to local increases of IVM around its target binding sites and the slow quasi-irreversible actions of IVM at GluClRs.
Membrane partitioning and FRAP experiments were performed on an LSM 710 inverted 2-photon confocal microscope equipped with a 40X water immersion objective lens (1.2 NA/280 μM WD/0.208 μM/pixel and a GFP/Alexa 488 filter set. Untransfected HEK293 cells at a confluency of 50–75% were plated onto 35-mm glass bottom dishes one day prior to experiments. The IVM-bdpy fluorophore was dissolved in 100% DMSO and stored at ‐20°C at a concentration of 24 mM.
A Mai Tai eHP 2-photon laser/760-1040 nm was used as an excitation source (power at 920 nm) for the FRAP experiments. The laser and bleaching power were set to 7% and 75% respectively. Membrane partitioning images were taken for 35 min at 0.5 Hz after replacing the cell medium (extracellular solution) with one containing the IVM-bdpy probe at a concentration of 500 nM. FRAP images were taken at a frequency of 0.5 Hz for 10 min after a 30 min equilibration period in 500 nM IVM-bdpy.

Chain of αβ (1:1) GluClRs (P91730 19-432): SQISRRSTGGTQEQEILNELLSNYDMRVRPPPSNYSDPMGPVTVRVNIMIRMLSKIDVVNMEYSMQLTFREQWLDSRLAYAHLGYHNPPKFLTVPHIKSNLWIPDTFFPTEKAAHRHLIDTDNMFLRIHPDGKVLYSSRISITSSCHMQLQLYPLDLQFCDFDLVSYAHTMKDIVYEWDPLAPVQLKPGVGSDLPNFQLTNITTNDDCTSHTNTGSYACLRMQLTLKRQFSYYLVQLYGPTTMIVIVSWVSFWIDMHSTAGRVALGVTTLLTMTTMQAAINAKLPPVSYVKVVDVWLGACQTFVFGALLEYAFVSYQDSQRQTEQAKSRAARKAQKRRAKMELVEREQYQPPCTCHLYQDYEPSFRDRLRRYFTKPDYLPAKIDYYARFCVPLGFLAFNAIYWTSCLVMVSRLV
Chain of αβ (1:1) GluClRs (O46124 entry or part of it): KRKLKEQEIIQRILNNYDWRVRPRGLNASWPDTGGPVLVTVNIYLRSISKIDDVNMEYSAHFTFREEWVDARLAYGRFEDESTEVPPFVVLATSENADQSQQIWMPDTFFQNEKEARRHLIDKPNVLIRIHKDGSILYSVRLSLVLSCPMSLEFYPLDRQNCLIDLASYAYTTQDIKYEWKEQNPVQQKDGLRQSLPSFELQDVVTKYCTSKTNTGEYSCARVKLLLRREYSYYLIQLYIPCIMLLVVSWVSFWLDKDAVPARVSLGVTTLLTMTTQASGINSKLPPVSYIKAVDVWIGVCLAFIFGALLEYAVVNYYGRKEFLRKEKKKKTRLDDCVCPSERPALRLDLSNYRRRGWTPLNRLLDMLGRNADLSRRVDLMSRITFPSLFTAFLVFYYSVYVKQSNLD

Compound: CC[C@H](C)[C@H]1O[C@]2(CC[C@@H]1C)C[C@@H]1C[C@@H](C/C=C(\C)[C@@H](O[C@H]3C[C@H](OC)[C@@H](O[C@H]4C[C@H](OC)[C@@H](O)[C@H](C)O4)[C@H](C)O3)[C@@H](C)/C=C/C=C3\CO[C@@H]4[C@H](O)C(C)=C[C@@H](C(=O)O1)[C@]34O)O2 [IVM, Ivermectin]
- logP [1]: 5.4
- increase in mean active period duration compared to 2 μM glutamate alone [2]: over 20 fold
- increase in mean active period duration compared to 3 mM glutamate [2]: 6 fold
- intra-activation open probability (PO) [2]: 0.83 ± 0.02
- mean active period duration ([2]; pooled): 876 ± 178 ms
- lateral diffusion rate [3]: 0.2 μms^−1
